Measured values published in patent US20160219829A1, “ANTI-ODOR MATERIAL FOR ANIMAL LITTERS USING PHOSPHOROTRIAMIDES IN POWDER FORM” (priority 2013, published 2016).

Molecular target: T1, urease (Canavalia ensiformis, UniProt P07374)
T1 construct: purchased Sigma
Format: biochemical
Protocol: To simulate soiled anti-odor material, urea/urease solution was prepared and added to the anti-odor material.
In the same beaker, weight 50 g of demineralised water.
In a small plastic cup, weight 0.012 g of urease. Then empty the plastic cup in the beaker containing the water and rinse it with the water/urea solution.
Fill a standard volume with anti-odor material (litter+n-BTPT powder) and equalize the surface. Empty the standard volume in a plastic bowl used for analysis.
Empty slowly the urea/urease solution on the anti-odor material while making sure that no solution comes in contact with sides of the plastic bowl.
Put a cover on the plastic bowl (the cover having a hole).
Insert the tube of a Gastec pump (GV-100S) in the hole of the cover.
Note the start time of the test and take a reading of the tube every 30 minutes for the first 7 hours.
Take a reading at 24 and 48 hour.
Dosimetry tests were performed according to the methodology above. The results were taken after 48 h of testing.
Dosimetry tests were then realised to evaluate the performance of the litter samples by measuring the ammonia release (in ppm). More particularly, performances of the odor-retardant material with n-BTPT in a powder form, in melted phase or coating a particulate support could be evaluated.

T1 sequence (P07374 whole entry, looked up): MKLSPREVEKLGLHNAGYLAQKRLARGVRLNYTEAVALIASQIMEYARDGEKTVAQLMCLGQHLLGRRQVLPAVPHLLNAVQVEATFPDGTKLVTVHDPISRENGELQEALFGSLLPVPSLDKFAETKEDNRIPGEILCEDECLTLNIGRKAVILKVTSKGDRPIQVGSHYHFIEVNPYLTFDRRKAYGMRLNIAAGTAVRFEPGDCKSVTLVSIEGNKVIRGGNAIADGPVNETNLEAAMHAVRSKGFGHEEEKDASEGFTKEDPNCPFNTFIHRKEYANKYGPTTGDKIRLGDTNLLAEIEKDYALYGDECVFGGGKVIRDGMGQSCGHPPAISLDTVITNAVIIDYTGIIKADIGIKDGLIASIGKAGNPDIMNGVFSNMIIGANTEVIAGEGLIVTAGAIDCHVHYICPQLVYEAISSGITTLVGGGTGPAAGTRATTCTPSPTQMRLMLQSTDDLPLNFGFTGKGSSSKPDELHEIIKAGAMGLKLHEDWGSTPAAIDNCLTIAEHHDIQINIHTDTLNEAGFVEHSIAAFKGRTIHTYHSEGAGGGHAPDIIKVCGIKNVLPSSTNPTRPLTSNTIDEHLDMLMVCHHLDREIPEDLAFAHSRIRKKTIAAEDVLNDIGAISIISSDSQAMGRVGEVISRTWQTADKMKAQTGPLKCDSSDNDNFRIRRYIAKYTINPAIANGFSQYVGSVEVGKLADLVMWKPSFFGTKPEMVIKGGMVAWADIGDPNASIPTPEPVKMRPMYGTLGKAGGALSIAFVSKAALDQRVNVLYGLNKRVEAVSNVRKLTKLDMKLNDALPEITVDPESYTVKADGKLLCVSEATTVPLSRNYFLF

Structure (SMILES): CCCCNP(N)(N)=S [n-BTPT, N-(n-butyl)thiophosphoric triamide]
- Ammonia release (48 h) (final concentration 350 g/MT n-BTPT in litter, bentonite absorptive substrate): 25 ppm
- ammonia release reaches a maximum (FIG. 1) (n-BTPT concentration of 0.03%, grinded powder in litter, 48 h): 62%
